# Experimental data from US8802597B2, “Herbicidal pyrimidines” (E I du Pont de Nemours and Company, priority 2003, dated 2014).
# Key:
# Type in all cases: in vivo
# [1] = test system: velvetleaf (Abutilon theophrasti); assay: Test A pre/postemergence
# How it was run: (§1)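 Visual injury scored 0–100 (0 = no effect, 100 = complete control) against untreated controls after about ten days in the greenhouse. Compounds, formulated in non-phytotoxic solvent plus surfactant, were applied preemergence as a directed soil spray and postemergence at the 1- to 2-leaf stage (2–10 cm).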
# [2] = test system: giant foxtail (Setaria faberi); assay: Test A pre/postemergence
# How it was run: as §1
# [3] = test system: redroot pigweed (Amaranthus retroflexus); assay: Test A pre/postemergence
# How it was run: as §1
# [4] = test system: crabgrass (Digitaria sanguinalis); assay: Test A pre/postemergence
# How it was run: as §1
# [5] = test system: barnyardgrass (Echinochloa crus-galli); assay: Test A pre/postemergence
# How it was run: as §1
# [6] = test system: morningglory (Ipomoea spp.); assay: Test A pre/postemergence
# How it was run: as §1
# [7] = test system: rice flatsedge (Cyperus iria); assay: Test E flooded paddy water application; conditions: Flood, 21 days, scale 0 to 100 (0 no effect, 100 complete control)
# Excerpt: (§2) Three plastic pots (ca. 16-cm diameter) per rate were partially filled with sterilized Tama silt loam soil comprising a 35:50:15 ratio of sand, silt and clay and 2.6% organic matter. Separate plantings for each of the three pots were as follows. Seeds from the U.S. of ducksalad (Heteranthera limosa), smallflower umbrella sedge (Cyperus difformis) and purple redstem (Ammannia coccinea), were planted into one 16-cm pot for each rate. Seeds from the U.S. of rice flatsedge (Cyperus iria), bearded (brdd.) sprangletop (Leptochloa fusca ssp. fascicularis), one stand of 9 or 10 water seeded rice seedlings (Oryza sativa cv. ‘Japonica-M202’), and one stand of 6 transplanted rice seedlings (Oryza sativa cv. ‘Japonica-M202’) were planted into one 16-cm pot for each rate. Seeds from the U.S. of barnyardgrass (Echinochloa crus-galli), late watergrass (Echinochloa oryzicola), early watergrass (Echinochloa oryzoides) and junglerice (Echinochloa colona) were planted into one 16-cm pot for each rate. Plantings were sequential so that crop and weed species were at the 2.0 to 2.5-leaf stage at time of treatment.
# (§3) Potted plants were grown in a greenhouse with day/night temperature settings of 29.5/26.7° C., and supplemental balanced lighting was provided to maintain a 16-hour photoperiod. Test pots were maintained in the greenhouse until test completion.
# (§4) At time of treatment, test pots were flooded to 3 cm above the soil surface, treated by application of test compounds directly to the paddy water, and then maintained at that water depth for the duration of the test. Effects of treatments on rice and weeds were visually evaluated by comparison to untreated controls after 21 days. Plant response ratings, summarized in Table E, are based on a scale of 0 to 100 where 0 is no effect and 100 is complete control. A dash (-) response means no test result.
# [8] = test system: bearded (brdd.) sprangletop (Leptochloa fusca ssp. fascicularis); assay: Test E flooded paddy water application; conditions: Flood, 21 days, scale 0 to 100 (0 no effect, 100 complete control)
# Excerpt: as §2, §3, §4
# [9] = test system: junglerice (Echinochloa colona); assay: Test E flooded paddy water application; conditions: Flood, 21 days, scale 0 to 100 (0 no effect, 100 complete control)
# Excerpt: as §2, §3, §4
# [10] = test system: early watergrass (Echinochloa oryzoides); assay: Test E flooded paddy water application; conditions: Flood, 21 days, scale 0 to 100 (0 no effect, 100 complete control)
# Excerpt: as §2, §3, §4
# [11] = test system: transplanted rice seedlings (Oryza sativa cv. ‘Japonica-M202’); assay: Test E flooded paddy water application; conditions: Flood, 21 days, scale 0 to 100 (0 no effect, 100 complete control)
# Excerpt: as §2, §3, §4
# [12] = test system: smallflower umbrella sedge (Cyperus difformis); assay: Test E flooded paddy water application; conditions: Flood, 21 days, scale 0 to 100 (0 no effect, 100 complete control)
# Excerpt: as §2, §3, §4
# [13] = test system: barnyardgrass (Echinochloa crus-galli); assay: Test E flooded paddy water application; conditions: Flood, 21 days, scale 0 to 100 (0 no effect, 100 complete control)
# Excerpt: as §2, §3, §4
# [14] = test system: water seeded rice seedlings (Oryza sativa cv. ‘Japonica-M202’); assay: Test E flooded paddy water application; conditions: Flood, 21 days, scale 0 to 100 (0 no effect, 100 complete control)
# Excerpt: as §2, §3, §4
# [15] = test system: ducksalad (Heteranthera limosa); assay: Test E flooded paddy water application; conditions: Flood, 21 days, scale 0 to 100 (0 no effect, 100 complete control)
# Excerpt: as §2, §3, §4
# [16] = test system: late watergrass (Echinochloa oryzicola); assay: Test E flooded paddy water application; conditions: Flood, 21 days, scale 0 to 100 (0 no effect, 100 complete control)
# Excerpt: as §2, §3, §4
# [17] = test system: purple redstem (Ammannia coccinea); assay: Test E flooded paddy water application; conditions: Flood, 21 days, scale 0 to 100 (0 no effect, 100 complete control)
# Excerpt: as §2, §3, §4
# [18] = Postemergence, 125 g ai/ha, 0 to 100 scale (0 no effect, 100 complete control)
# [19] = Postemergence, 500 g ai/ha, 0 to 100 scale (0 no effect, 100 complete control)
# [20] = Preemergence, 125 g ai/ha, 0 to 100 scale where 0 is no effect and 100 is complete control, approximately ten days
# [21] = Preemergence, 500 g ai/ha, 0 to 100 scale where 0 is no effect and 100 is complete control, approximately ten days
smiles,measurement,setting,value
CCOC(=O)c1nc(-c2ccc(Cl)c(Cl)c2)nc(N)c1Br [Compound 66],"Plant response rating, Velvetleaf",[1]; [18],50
same,"Plant response rating, Velvetleaf",[1]; [19],75
same,"Plant response rating, Velvetleaf",[1]; [20],0
same,"Plant response rating, Velvetleaf",[1]; [21],35
same,"Plant response rating, Foxtail, Giant",[2]; [18],0
same,"Plant response rating, Foxtail, Giant",[2]; [19],0
same,"Plant response rating, Foxtail, Giant",[2]; [20],0
same,"Plant response rating, Foxtail, Giant",[2]; [21],0
same,"Plant response rating, Pigweed",[3]; [18],50
same,"Plant response rating, Pigweed",[3]; [19],65
same,"Plant response rating, Pigweed",[3]; [20],0
same,"Plant response rating, Pigweed",[3]; [21],10
same,"Plant response rating, Crabgrass",[4]; [18],0
same,"Plant response rating, Crabgrass",[4]; [19],0
same,"Plant response rating, Crabgrass",[4]; [20],0
same,"Plant response rating, Crabgrass",[4]; [21],15
same,"Plant response rating, Barnyardgrass",[5]; [18],0
same,"Plant response rating, Barnyardgrass",[5]; [19],0
same,"Plant response rating, Barnyardgrass",[5]; [20],0
same,"Plant response rating, Barnyardgrass",[5]; [21],0
same,"Plant response rating, Morningglory",[6]; [18],20
same,"Plant response rating, Morningglory",[6]; [19],30
same,"Plant response rating, Morningglory",[6]; [20],0
same,"Plant response rating, Morningglory",[6]; [21],0
same,"Flatsedge, Rice plant response rating",[7]; 32 g ai/ha,0
same,"Flatsedge, Rice plant response rating",[7]; 64 g ai/ha,0
same,"Flatsedge, Rice plant response rating",[7]; 125 g ai/ha,0
same,"Flatsedge, Rice plant response rating",[7]; 250 g ai/ha,0
same,"Plant response rating, Flatsedge, Rice",[7]; 16 g ai/ha,0
same,"Sprangletop, Brdd. plant response rating",[8]; 32 g ai/ha,0
same,"Sprangletop, Brdd. plant response rating",[8]; 64 g ai/ha,0
same,"Sprangletop, Brdd. plant response rating",[8]; 125 g ai/ha,0
same,"Sprangletop, Brdd. plant response rating",[8]; 250 g ai/ha,0
same,"Plant response rating, Sprangletop, Brdd.",[8]; 16 g ai/ha,0
same,Junglerice plant response rating,[9]; 32 g ai/ha,0
same,Junglerice plant response rating,[9]; 64 g ai/ha,0
same,Junglerice plant response rating,[9]; 125 g ai/ha,0
same,Junglerice plant response rating,[9]; 250 g ai/ha,0
same,"Plant response rating, Junglerice",[9]; 16 g ai/ha,0
same,"Watergrass, Early plant response rating",[10]; 32 g ai/ha,0
same,"Watergrass, Early plant response rating",[10]; 64 g ai/ha,0
same,"Watergrass, Early plant response rating",[10]; 125 g ai/ha,0
same,"Watergrass, Early plant response rating",[10]; 250 g ai/ha,0
same,"Plant response rating, Watergrass, Early",[10]; 16 g ai/ha,0
same,"Rice, Transplanted plant response rating",[11]; 32 g ai/ha,0
same,"Rice, Transplanted plant response rating",[11]; 64 g ai/ha,0
same,"Rice, Transplanted plant response rating",[11]; 125 g ai/ha,0
same,"Rice, Transplanted plant response rating",[11]; 250 g ai/ha,0
same,"Plant response rating, Rice, Transplanted",[11]; 16 g ai/ha,0
same,"Sedge, Umbrella plant response rating",[12]; 32 g ai/ha,0
same,"Sedge, Umbrella plant response rating",[12]; 64 g ai/ha,0
same,"Sedge, Umbrella plant response rating",[12]; 125 g ai/ha,0
same,"Sedge, Umbrella plant response rating",[12]; 250 g ai/ha,0
same,"Plant response rating, Sedge, Umbrella",[12]; 16 g ai/ha,0
same,Barnyardgrass plant response rating,[13]; 32 g ai/ha,0
same,Barnyardgrass plant response rating,[13]; 125 g ai/ha,0
same,Barnyardgrass plant response rating,[13]; 250 g ai/ha,35
same,"Plant response rating, Barnyardgrass",[13]; 16 g ai/ha,0
same,"Rice, Water Seeded plant response rating",[14]; 32 g ai/ha,0
same,"Rice, Water Seeded plant response rating",[14]; 64 g ai/ha,0
same,"Rice, Water Seeded plant response rating",[14]; 125 g ai/ha,0
same,"Rice, Water Seeded plant response rating",[14]; 250 g ai/ha,0
same,"Plant response rating, Rice, Water Seeded",[14]; 16 g ai/ha,0
same,Ducksalad plant response rating,[15]; 32 g ai/ha,100
same,Ducksalad plant response rating,[15]; 64 g ai/ha,100
same,Ducksalad plant response rating,[15]; 125 g ai/ha,100
same,Ducksalad plant response rating,[15]; 250 g ai/ha,100
same,"Plant response rating, Ducksalad",[15]; 16 g ai/ha,95
same,"Watergrass, Late plant response rating",[16]; 32 g ai/ha,0
same,"Watergrass, Late plant response rating",[16]; 64 g ai/ha,0
same,"Watergrass, Late plant response rating",[16]; 125 g ai/ha,0
same,"Watergrass, Late plant response rating",[16]; 250 g ai/ha,0
same,"Plant response rating, Watergrass, Late",[16]; 16 g ai/ha,0
same,Redstem plant response rating,[17]; 32 g ai/ha,0
same,Redstem plant response rating,[17]; 64 g ai/ha,0
same,Redstem plant response rating,[17]; 125 g ai/ha,40
same,Redstem plant response rating,[17]; 250 g ai/ha,100
same,"Plant response rating, Redstem",[17]; 16 g ai/ha,0
